Holding throughout (assay type): functional
Experiment [1] deals with Bursaphelenchus xylophilus. Nature of the experiment: Nematicidal activity against Bursaphelenchus xylophilus assessed as nematode mortality at 2 mg/mL measured 24 hr post dose by microscopy.
For experiment [2], the system named is Bursaphelenchus xylophilus. The experiment can be described thus: Nematicidal activity against Bursaphelenchus xylophilus assessed as nematode mortality at 1 mg/mL measured 24 hr post dose by microscopy.
For experiment [3], the system named is Bursaphelenchus xylophilus. Nature of the experiment: Nematicidal activity against Bursaphelenchus xylophilus assessed as nematode mortality at 0.8 mg/mL measured 24 hr post dose by microscopy.
In experiment [4] the test system is Bursaphelenchus xylophilus. Nature of the experiment: Nematicidal activity against Bursaphelenchus xylophilus assessed as nematode mortality at 0.4 mg/mL measured 24 hr post dose by microscopy.
The test system of experiment [5] is Bursaphelenchus xylophilus. Nature of the experiment: Nematicidal activity against Bursaphelenchus xylophilus assessed as nematode mortality at 0.2 mg/mL measured 24 hr post dose by microscopy.
Experiment [6] deals with Bursaphelenchus xylophilus. The experiment can be described thus: Nematicidal activity against Bursaphelenchus xylophilus assessed as nematode mortality at 0.6 mg/mL measured 24 hr post dose by microscopy.

Usually mortality stands for the share of the test organisms that died.

In the case of `CCCCCCC=O` [HEPTANAL], the mortality at 2000 µg/mL in experiment [1] was 40.8%.

On to `C=C/C(C)=C/CC=C(C)C` [OCIMENE], for which, in experiment [1], the mortality at 2000 µg/mL was 16.2%.

Consider `CC(=O)c1ccccc1` [ACETOPHENONE], for which, in experiment [1], the mortality at 2000 µg/mL was 5.3%.

Consider `C/C=C\c1cc(OC)c(OC)cc1OC` [CIS-ASARONE], for which the mortality at 1000 µg/mL in experiment [2] amounted to 100%. In addition, the mortality at 800 µg/mL in experiment [3] came to 100%. In addition, the mortality at 2000 µg/mL in experiment [1] came out at 100%. Besides, the mortality at 400 µg/mL in experiment [4] turned out to be 47.9%. Also, the mortality at 200 µg/mL in experiment [5] came out at 15.8%. Besides, in experiment [6], the mortality at 600 µg/mL is 96.2%.

Take `C/C=C/c1cc(OC)c(OC)cc1OC` [TRANS-ASARONE]: the mortality at 2000 µg/mL in experiment [1] worked out at 12.1%.

Turning to `CCCCCCCCC` [NONANE], the mortality at 2000 µg/mL in experiment [1] came to 1.7%.

As for `CCCCCCCCCCCC=O` [DODECANAL], the mortality at 1000 µg/mL in experiment [2] was 86.3%. Besides, the mortality at 800 µg/mL in experiment [3] turned out to be 77.8%. Moreover, the mortality at 2000 µg/mL in experiment [1] came to 100%. Further, the mortality at 400 µg/mL in experiment [4] was 20.8%. In addition, the mortality at 200 µg/mL in experiment [5] was 11.5%. Besides, the mortality at 600 µg/mL in experiment [6] came to 37.6%.

`CCCCCCCCCCO` [DECANOL]: the mortality at 1000 µg/mL in experiment [2] stood at 100%. Besides, the mortality at 800 µg/mL in experiment [3] came to 100%. Further, the mortality at 2000 µg/mL in experiment [1] came out at 100%. Moreover, the mortality at 400 µg/mL in experiment [4] worked out at 100%. The mortality at 200 µg/mL in experiment [5] was 100%. The mortality at 600 µg/mL in experiment [6] came out at 100%.

As for `OCc1ccccc1` [BENZYL ALCOHOL], the mortality at 2000 µg/mL in experiment [1] was determined as 3.8%.

Take `CCCCCCC/C=C/CO`: the mortality at 1000 µg/mL in experiment [2] worked out at 100%. The mortality at 800 µg/mL in experiment [3] amounted to 100%. In experiment [1], the mortality at 2000 µg/mL worked out at 100%. Also, the mortality at 400 µg/mL in experiment [4] came out at 100%. The mortality at 200 µg/mL in experiment [5] was 98%. The mortality at 600 µg/mL in experiment [6] amounted to 100%.

As to `C=Cc1ccccc1` [STYRENE], the mortality at 2000 µg/mL in experiment [1] was determined as 6.7%.

`OC/C=C/c1ccccc1` [CINNAMIC ALCOHOL]: in experiment [2], the mortality at 1000 µg/mL came to 100%. Also, the mortality at 800 µg/mL in experiment [3] stood at 100%. In experiment [1], the mortality at 2000 µg/mL is 100%. Moreover, the mortality at 400 µg/mL in experiment [4] came to 57.6%. The mortality at 200 µg/mL in experiment [5] came out at 11.3%. The mortality at 600 µg/mL in experiment [6] was found to be 99.5%.

Take `O=Cc1ccccc1` [BENZALDEHYDE]: the mortality at 1000 µg/mL in experiment [2] turned out to be 94.1%. In addition, in experiment [3], the mortality at 800 µg/mL came to 77.5%. In experiment [1], the mortality at 2000 µg/mL turned out to be 100%. In experiment [4], the mortality at 400 µg/mL came to 7.4%. Also, in experiment [5], the mortality at 200 µg/mL was determined as 1.9%. The mortality at 600 µg/mL in experiment [6] came out at 45.6%.

In the case of `CC(O)c1ccccc1` (stereo not given) [PHENYL ETHANOL], in experiment [1], the mortality at 2000 µg/mL worked out at 3%.

`CCCCCCCCC=O` [NONANAL]: in experiment [2], the mortality at 1000 µg/mL turned out to be 95.8%. Further, in experiment [3], the mortality at 800 µg/mL stood at 83.4%. The mortality at 2000 µg/mL in experiment [1] was found to be 100%. Also, in experiment [4], the mortality at 400 µg/mL is 3.6%. Besides, in experiment [5], the mortality at 200 µg/mL is 1.1%. For the same compound, the mortality at 600 µg/mL in experiment [6] was 59.5%.

For the compound `OCCCc1ccccc1` [HYDROCINNAMYL ALCOHOL], the mortality at 2000 µg/mL in experiment [1] is 17.2%.

For `CCCCCCCCCC=O` [DECANAL], in experiment [2], the mortality at 1000 µg/mL was 100%. Moreover, in experiment [3], the mortality at 800 µg/mL was found to be 97.3%. In addition, the mortality at 2000 µg/mL in experiment [1] turned out to be 100%. For the same compound, the mortality at 400 µg/mL in experiment [4] was 25.1%. Also, the mortality at 200 µg/mL in experiment [5] came to 3%. Moreover, the mortality at 600 µg/mL in experiment [6] stood at 34.2%.

As for `CCCCCCCC=O` [OCTANAL], the mortality at 1000 µg/mL in experiment [2] came out at 89%. Moreover, in experiment [3], the mortality at 800 µg/mL came out at 79.3%. Further, the mortality at 2000 µg/mL in experiment [1] amounted to 100%. In addition, the mortality at 400 µg/mL in experiment [4] was 31.2%. Also, in experiment [5], the mortality at 200 µg/mL stood at 3.5%. Further, the mortality at 600 µg/mL in experiment [6] came out at 55.2%.

Take `CC(=O)OC/C=C(\C)CCC=C(C)C` [GERANYL ACETATE]: the mortality at 2000 µg/mL in experiment [1] was 7%.

Turning to `CCCCCCCCCCC=O` [UNDECANAL], in experiment [2], the mortality at 1000 µg/mL was 98.7%. Besides, the mortality at 800 µg/mL in experiment [3] was 90.5%. For the same compound, the mortality at 2000 µg/mL in experiment [1] worked out at 100%. In experiment [4], the mortality at 400 µg/mL turned out to be 34.1%. Besides, in experiment [5], the mortality at 200 µg/mL worked out at 17.8%. The mortality at 600 µg/mL in experiment [6] was 64.1%.

The values are drawn from ChEMBL document CHEMBL3044590, “Nematicidal activity of plant essential oils and components from coriander (Coriandrum sativum), Oriental sweetgum (Liquidambar orientalis), and valerian (Valeriana wallichii) essential oils against pine wood nematode (Bursaphelenchus xylophilus)” (2008).
